Measurements as given in paper PMC7026418, “The kinase polypharmacology landscape of clinical PARP inhibitors” (Scientific Reports, 2020).
Read-outs that look alike come from different tables or passages of the source.

Assays:
Assay in all cases: biochemical
Design in all cases: DiscoveRx KINOMEscan active site-directed competition binding; percent of control kinase bound to immobilised ligand
EGFR(L747-T751del,Sins) = EGFR(L747-T751del,Sins) (Homo sapiens, UniProt P00533, DEL747-750/T751S)
TTK = target: T1, TTK (Homo sapiens, UniProt P33981)
T1 sequence (P33981 1-857): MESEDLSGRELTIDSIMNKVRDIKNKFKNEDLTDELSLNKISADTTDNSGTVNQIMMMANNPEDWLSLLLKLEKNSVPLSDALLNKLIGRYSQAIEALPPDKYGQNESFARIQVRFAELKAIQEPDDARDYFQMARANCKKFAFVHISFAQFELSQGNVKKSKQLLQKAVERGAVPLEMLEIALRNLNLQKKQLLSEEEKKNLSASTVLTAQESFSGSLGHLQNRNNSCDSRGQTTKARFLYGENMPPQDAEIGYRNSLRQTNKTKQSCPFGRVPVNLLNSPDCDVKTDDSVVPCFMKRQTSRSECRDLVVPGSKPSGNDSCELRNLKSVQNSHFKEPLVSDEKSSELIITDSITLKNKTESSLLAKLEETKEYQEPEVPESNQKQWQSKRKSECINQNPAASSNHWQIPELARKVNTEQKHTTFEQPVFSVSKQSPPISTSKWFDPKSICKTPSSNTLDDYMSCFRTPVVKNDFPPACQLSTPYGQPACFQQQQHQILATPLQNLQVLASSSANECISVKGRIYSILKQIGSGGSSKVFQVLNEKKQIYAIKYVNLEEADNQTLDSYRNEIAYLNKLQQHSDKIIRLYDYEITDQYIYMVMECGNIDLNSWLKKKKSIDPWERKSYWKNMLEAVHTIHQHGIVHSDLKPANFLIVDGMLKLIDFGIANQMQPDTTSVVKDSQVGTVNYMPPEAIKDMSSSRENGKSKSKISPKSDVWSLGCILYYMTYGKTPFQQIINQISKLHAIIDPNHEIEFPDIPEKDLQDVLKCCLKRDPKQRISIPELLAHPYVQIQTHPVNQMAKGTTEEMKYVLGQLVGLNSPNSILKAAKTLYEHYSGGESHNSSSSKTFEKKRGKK

TNIK = TNIK (Homo sapiens, UniProt Q9UKE5)
Sequence of TNIK (Q9UKE5 whole entry): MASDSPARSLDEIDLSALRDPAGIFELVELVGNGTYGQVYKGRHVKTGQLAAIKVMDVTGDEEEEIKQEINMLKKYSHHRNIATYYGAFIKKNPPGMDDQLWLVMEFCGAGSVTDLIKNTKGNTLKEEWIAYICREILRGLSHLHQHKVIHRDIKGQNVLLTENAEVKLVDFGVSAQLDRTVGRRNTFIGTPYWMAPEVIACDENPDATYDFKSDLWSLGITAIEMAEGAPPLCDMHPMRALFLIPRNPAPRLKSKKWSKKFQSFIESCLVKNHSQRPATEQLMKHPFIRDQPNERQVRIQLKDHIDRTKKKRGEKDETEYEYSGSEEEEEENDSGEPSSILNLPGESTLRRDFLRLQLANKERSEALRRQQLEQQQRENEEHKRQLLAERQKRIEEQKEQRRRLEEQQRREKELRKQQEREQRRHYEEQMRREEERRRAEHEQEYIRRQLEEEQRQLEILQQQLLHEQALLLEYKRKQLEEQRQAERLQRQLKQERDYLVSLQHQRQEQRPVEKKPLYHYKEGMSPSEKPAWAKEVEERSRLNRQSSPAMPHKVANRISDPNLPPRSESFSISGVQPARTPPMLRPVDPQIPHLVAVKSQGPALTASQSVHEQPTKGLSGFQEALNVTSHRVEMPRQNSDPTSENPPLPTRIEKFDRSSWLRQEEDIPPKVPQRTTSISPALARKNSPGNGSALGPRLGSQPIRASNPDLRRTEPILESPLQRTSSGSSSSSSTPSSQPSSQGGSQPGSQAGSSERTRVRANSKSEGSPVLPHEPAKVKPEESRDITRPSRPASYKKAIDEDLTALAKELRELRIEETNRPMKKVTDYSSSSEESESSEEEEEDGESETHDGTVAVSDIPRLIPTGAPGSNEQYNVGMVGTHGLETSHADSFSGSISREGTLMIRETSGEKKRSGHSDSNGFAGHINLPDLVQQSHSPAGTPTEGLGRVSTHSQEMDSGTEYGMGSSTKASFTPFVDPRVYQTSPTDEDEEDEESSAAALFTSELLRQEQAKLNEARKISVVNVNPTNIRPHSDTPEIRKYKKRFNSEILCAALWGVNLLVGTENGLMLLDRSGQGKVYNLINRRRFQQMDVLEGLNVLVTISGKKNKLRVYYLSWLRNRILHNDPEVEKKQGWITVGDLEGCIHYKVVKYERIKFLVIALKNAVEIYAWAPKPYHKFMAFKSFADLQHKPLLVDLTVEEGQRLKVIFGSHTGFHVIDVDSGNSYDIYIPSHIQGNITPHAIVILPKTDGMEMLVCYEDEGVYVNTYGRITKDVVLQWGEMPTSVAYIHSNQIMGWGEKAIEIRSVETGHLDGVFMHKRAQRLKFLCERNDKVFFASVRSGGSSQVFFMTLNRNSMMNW

GRK3 = target: T2, GRK3 (Homo sapiens, UniProt P35626)
T2 sequence (P35626 1-688): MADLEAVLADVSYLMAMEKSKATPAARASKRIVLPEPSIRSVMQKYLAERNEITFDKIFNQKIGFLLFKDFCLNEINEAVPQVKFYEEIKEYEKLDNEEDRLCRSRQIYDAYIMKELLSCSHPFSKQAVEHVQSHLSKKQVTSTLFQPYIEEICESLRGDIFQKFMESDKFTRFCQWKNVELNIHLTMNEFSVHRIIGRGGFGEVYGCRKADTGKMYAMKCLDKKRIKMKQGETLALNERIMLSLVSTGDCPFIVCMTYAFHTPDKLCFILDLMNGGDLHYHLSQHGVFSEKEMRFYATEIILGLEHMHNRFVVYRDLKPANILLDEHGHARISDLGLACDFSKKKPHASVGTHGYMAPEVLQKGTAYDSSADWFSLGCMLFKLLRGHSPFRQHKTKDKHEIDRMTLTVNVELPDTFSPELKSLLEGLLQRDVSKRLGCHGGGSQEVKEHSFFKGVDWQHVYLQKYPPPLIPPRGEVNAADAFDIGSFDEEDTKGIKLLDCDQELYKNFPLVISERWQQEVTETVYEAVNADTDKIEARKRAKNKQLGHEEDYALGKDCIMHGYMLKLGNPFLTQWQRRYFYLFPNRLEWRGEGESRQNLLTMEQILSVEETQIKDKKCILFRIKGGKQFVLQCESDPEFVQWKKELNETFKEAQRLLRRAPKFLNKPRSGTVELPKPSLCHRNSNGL

FLT3-autoinhibited = target: T3, FLT3-autoinhibited (Homo sapiens, UniProt P36888)
T3 sequence (P36888 1-993): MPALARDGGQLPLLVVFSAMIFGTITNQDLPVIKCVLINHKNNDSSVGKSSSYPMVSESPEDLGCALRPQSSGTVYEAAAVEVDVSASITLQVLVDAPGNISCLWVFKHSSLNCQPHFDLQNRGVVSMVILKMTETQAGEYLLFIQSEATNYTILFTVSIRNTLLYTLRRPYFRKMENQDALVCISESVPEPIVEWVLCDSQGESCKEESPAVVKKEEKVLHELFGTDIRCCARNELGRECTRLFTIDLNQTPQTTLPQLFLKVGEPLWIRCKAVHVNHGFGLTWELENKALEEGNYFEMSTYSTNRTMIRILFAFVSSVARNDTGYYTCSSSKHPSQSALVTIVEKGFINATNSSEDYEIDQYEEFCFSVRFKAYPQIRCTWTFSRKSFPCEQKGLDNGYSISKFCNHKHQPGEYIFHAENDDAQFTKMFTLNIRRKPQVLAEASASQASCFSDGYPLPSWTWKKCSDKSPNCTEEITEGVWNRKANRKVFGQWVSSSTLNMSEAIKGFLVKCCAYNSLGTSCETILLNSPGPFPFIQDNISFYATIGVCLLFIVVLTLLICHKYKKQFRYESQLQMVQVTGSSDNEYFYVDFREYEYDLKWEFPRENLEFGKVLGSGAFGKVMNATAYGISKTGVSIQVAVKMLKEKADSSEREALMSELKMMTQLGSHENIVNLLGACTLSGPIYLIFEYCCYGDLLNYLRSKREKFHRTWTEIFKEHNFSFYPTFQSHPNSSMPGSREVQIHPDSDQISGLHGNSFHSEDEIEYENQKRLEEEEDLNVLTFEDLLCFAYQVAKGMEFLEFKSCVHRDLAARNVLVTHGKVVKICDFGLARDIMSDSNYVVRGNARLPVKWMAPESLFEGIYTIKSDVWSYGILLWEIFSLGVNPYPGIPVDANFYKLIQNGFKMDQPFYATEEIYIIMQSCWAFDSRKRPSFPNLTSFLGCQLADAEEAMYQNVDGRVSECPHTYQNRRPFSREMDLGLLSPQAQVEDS

PAK3 = PAK3 (Homo sapiens, UniProt O75914)
Sequence of PAK3 (O75914 whole entry): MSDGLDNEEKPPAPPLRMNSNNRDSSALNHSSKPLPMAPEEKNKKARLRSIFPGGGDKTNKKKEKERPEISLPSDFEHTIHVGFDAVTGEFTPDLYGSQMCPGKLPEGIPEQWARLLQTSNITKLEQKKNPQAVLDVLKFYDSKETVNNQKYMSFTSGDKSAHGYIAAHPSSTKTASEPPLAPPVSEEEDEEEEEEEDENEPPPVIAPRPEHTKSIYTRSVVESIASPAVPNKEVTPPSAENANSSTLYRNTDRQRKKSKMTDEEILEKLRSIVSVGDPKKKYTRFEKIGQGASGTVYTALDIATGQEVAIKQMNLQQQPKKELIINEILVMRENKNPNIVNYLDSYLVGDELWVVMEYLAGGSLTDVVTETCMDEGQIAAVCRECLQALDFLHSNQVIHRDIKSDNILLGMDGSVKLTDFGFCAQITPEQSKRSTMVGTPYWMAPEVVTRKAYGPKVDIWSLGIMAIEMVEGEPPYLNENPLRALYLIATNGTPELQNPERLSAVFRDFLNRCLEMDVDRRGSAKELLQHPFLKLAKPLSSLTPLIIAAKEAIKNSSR

[1] = read-out: Talazoparib (BMN 673) / %Ctrl @ 10000nM
[2] = read-out: Olaparib / %Ctrl @ 10000nM
[3] = read-out: Rucaparib / %Ctrl @ 10000nM, binding competition, % of control
[4] = read-out: Niraparib (MK-4827) / %Ctrl @ 10000nM

Sequence of EGFR(L747-T751del,Sins) (P00533 with tags, fused parts or gaps DEL747-750/T751S): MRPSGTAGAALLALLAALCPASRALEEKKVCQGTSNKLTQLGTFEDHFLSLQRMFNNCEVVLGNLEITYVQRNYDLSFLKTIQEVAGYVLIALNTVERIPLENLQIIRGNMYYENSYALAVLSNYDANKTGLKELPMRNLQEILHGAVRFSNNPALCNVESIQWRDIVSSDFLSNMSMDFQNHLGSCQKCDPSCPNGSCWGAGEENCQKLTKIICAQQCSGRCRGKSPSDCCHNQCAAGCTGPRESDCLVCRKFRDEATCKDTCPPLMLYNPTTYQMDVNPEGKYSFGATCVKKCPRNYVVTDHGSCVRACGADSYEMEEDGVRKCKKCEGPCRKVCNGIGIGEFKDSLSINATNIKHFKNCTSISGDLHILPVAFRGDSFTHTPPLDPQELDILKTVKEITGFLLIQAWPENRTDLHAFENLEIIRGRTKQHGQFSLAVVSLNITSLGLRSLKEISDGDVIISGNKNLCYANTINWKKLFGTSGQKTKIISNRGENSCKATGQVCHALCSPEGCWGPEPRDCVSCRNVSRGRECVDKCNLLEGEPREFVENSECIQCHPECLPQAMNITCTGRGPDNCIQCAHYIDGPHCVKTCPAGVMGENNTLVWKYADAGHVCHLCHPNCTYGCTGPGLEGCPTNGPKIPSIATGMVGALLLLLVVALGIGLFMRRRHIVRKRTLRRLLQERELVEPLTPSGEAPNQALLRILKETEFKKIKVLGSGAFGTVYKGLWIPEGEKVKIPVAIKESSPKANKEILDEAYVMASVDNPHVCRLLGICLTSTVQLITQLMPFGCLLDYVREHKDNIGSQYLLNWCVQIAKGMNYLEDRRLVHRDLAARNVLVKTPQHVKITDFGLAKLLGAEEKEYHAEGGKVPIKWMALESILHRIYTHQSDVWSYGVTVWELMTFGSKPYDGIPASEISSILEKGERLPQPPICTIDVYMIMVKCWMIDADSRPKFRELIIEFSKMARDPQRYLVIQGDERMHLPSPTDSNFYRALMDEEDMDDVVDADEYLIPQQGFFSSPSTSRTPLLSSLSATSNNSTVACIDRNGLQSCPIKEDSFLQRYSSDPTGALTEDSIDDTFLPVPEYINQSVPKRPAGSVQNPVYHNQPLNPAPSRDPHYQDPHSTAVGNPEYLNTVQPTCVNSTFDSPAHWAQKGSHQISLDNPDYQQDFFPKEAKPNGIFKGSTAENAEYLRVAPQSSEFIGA

`Cn1ncnc1[C@H]1c2n[nH]c(=O)c3cc(F)cc(c23)N[C@@H]1c1ccc(F)cc1` [Talazoparib] showed a percent of control binding at 10 µM (EGFR(L747-T751del,Sins); [1]) of 89%, a percent of control binding at 10 µM (TTK; [1]) of 99% and a percent of control binding at 10 µM (TNIK; [1]) of 98%. For the same molecule, the percent of control binding at 10 µM (GRK3; [1]) was 81%, the percent of control binding at 10 µM (FLT3-autoinhibited; [1]) was 100% and the percent of control binding at 10 µM (PAK3; [1]) was 100%.

With `O=C(c1cc(Cc2n[nH]c(=O)c3ccccc23)ccc1F)N1CCN(C(=O)C2CC2)CC1` [Olaparib] the percent of control binding at 10 µM (EGFR(L747-T751del,Sins); [2]) was 81%, the percent of control binding at 10 µM (TTK; [2]) was 90% and the percent of control binding at 10 µM (TNIK; [2]) was 100%. The percent of control binding at 10 µM (GRK3; [2]) was 82%, the percent of control binding at 10 µM (FLT3-autoinhibited; [2]) was 87% and the percent of control binding at 10 µM (PAK3; [2]) was 96%.

Molecule `CNCc1ccc(-c2[nH]c3cc(F)cc4c3c2CCNC4=O)cc1` [Rucaparib] has a percent of control binding at 10 µM (EGFR(L747-T751del,Sins); [3]) of 86%, a percent of control binding at 10 µM (TTK; [3]) of 20% and a percent of control binding at 10 µM (TNIK; [3]) of 22%. For the same molecule, the percent of control binding at 10 µM (GRK3; [3]) was 90%, the “Rucaparib / %Ctrl @ 10000nM” value (FLT3-autoinhibited; binding competition, % of control) was 93% and the percent of control binding at 10 µM (PAK3; [3]) was 95%.

In the case of `NC(=O)c1cccc2cn(-c3ccc([C@@H]4CCCNC4)cc3)nc12` [Niraparib], the percent of control binding at 10 µM (EGFR(L747-T751del,Sins); [4]) was 90%, the percent of control binding at 10 µM (TTK; [4]) was 54% and the percent of control binding at 10 µM (TNIK; [4]) was 86%. For the same molecule, the percent of control binding at 10 µM (GRK3; [4]) was 95%, the percent of control binding at 10 µM (FLT3-autoinhibited; [4]) was 84% and the percent of control binding at 10 µM (PAK3; [4]) was 67%.
